# Measured values from patent EP2142646B1, “METHOD OF INCREASING OF THE PHOTOSYNTHETIC CARBON DIOXIDE ASSIMILATION YIELD” (priority 2007, dated 2008).
# “And” between values parts separate entries of the source, which are not always exact repeats. Identical values can stand only once.
# Columns and labels:
# [1] = biological target: small subunits of RuBisCO (Spinacia oleracea, UniProt P00870); assay: Bioaffinity chromatography of steroid-binding proteins
# Excerpt: As an example, ecdysteroids can be stated. […] Their function in plants has been unknown yet. We discovered that these compounds influence the carboxylase activity of the enzyme. The active enzyme consists of 8 large subunits and 8 small subunits considered to have regulatory role. We identified the small subunits as proteins able to bind 20-hydroxyecdysone (20HE) in bioaffinity chromatography.
# RuBisCO = biological target: T1, RuBisCO (Spinacia oleracea, UniProt P00870+P00875); assay: RuBisCO carboxylase assay (formation of acid-stable 14C product from NaH14CO3); format: biochemical, spinach
# T1 construct: from tissue; host or cells: spinach
# T1 sequence (P00870 whole entry, other chains not shown): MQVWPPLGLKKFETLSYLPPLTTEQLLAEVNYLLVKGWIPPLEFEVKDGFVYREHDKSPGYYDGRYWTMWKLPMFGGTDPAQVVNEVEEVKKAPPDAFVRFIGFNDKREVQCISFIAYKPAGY
# Excerpt: Relative amount of product detected represents the ratio of the amount of [1-14C]-3-phosphoglycerate produced by the reaction in the presence of 20E to the amount of [1-14C]-3-phosphoglycerate produced by the reaction in no presence of 20E.
# The influence of ecdysteroids on RuBisCO assay was based on the protocol described by Pierce et al. (Pierce JW, McCurry SD, Mulligan RM, Tolbert NE. Activation and assay of ribulose-1,5-bisphosphate carboxylase/oxygenase. Methods Enzymol. 1982; 89: 47-55.), where the RuBisCO carboxylase activity is assayed by the rate of formation of acid-stable ^14C product, […], formed from NaH^14CO3. First, the enzyme from spinach was activated at 2 mg.mL^-1 in the activating buffer - 100 mM Bicine pH 8.2, non-labelled 10 mM NaHCO3, 20 mM MgCl2, 0.2 mM EDTA and 1 mM dithiodireitol - for ten minutes at 30 °C. The assay itself was carried out in 20 ml scintillation vials in a solution prepared by mixing 250 µL of 200 mM bicine buffer pH 8.2, 0.4 mM EDTA and 1 mM dithiothreitol, 5 µL of 2 M MgCl2, 150 µL of 20E solution or water (in the case of the control), 20 µL of 250 mM NaH^14CO3 solution and 20 µL of 12.5 mM ribulose-1,5-bisphosphate. 250 mM NaH^14CO3 was prepared by mixing NaH^14CO3 solution (specific activity 2 mCi/ml) with 0.3 M NaHCO3 in the ratio of 1:4. The reaction was initiated by the addition of 100 µL of the activated enzyme and the vial was swirled so that the solution components could mix. The reaction was stopped by the addition of 200 µL of 2 M HCl. To remove excess ^14CO2 and acid, the vials were slowly heated at 95 °C in a hood. After the liquid evaporated and the vials were cooled at laboratory temperature, 5 mL of scintillation solution Rotiszint® eco plus was added. The concentration of 20E was chosen so that its final molar concentration to the molar concentration of the enzyme in the vial was 1:1; the stock solution containing 1 mg of 20E per ml was diluted to the desired concentration just before the experiment.
# The same experiment as in Example 1 was carried out but different amounts of 20-hydroxyecdysone were used.
# The same experiment as in Example 1 was carried out but different brassinosteroids were used.
# The same experiment as in Example 1 was carried out but different ecdysteroids were used.
# The same experiment as in Example 1 was carried out but mixed ecdysteroid fractions were used.
# photosynthesis = assay: Overall activity of photosynthesis in vivo: oxygen production by leaf target (Clark oxygen electrode); settings: for Net photosynthetic rate. PN, Average: average of 6 plants; for Net photosynthetic rate. PN: individual plants (Plant nr. 1-6), listed as 20E
# Procedure: Activity of photosynthesis was measured as the production of oxygen by circular target (average 35 mm) cut from the third leaf (counted from the top of the plant) that was placed in the sampling chamber. Assay: oxygen electrode (Clark electrode), sampling chamber LD2 (Hansatech, King's Lynn, Great Britain). Target was incubated in the dark for 5 minutes followed by 9 minutes of illumination; production of oxygen evaluated in the fifth-eighth minute after illumination (in the linear part of the light curve). Illumination was 240 micromol.m^-2.s^-1. Plants were 96 days old when analyzed (96 days after sowing). […]
# [2] = molar ratio of steroid to enzyme 10:1, relative to reaction without steroid
# Sequence of small subunits of RuBisCO (P00870 whole entry): as the sequence (P00870 whole entry, other chains not shown) above
smiles,measurement,setting,value
CC(C)(O)CC[C@@H](O)[C@](C)(O)[C@H]1CC[C@@]2(O)C3=CC(=O)[C@@H]4C[C@@H](O)[C@@H](O)C[C@]4(C)[C@H]3CC[C@]12C [20-hydroxyecdysone],binding to small subunits of RuBisCO,[1],able to bind
same,Relative amount of product detected,"RuBisCO; molar ratio of steroid to enzyme 1:1, [1-14C]-3-phosphoglycerate relative to reaction without steroid",1.05
same,Relative amount of product detected,RuBisCO; [2],1.13
same,Relative amount of product detected,"RuBisCO; molar ratio of steroid to enzyme 20:1, relative to reaction without steroid",1.12
same,"Net photosynthetic rate. PN, Average",photosynthesis; 1 hour,21.09 µmol O2.m^-2.s^-1
same,Net photosynthetic rate. PN,"photosynthesis; 1 hour, plants 96 days old, illumination 240 micromol.m^-2.s^-1",17.02 µmol O2.m^-2.s^-1 and 21.56 µmol O2.m^-2.s^-1 and 22.70 µmol O2.m^-2.s^-1 and 18.40 µmol O2.m^-2.s^-1 and 23.42 µmol O2.m^-2.s^-1 (2×)
same,"Net photosynthetic rate. PN, Average",photosynthesis; 2 hours,22.77 µmol O2.m^-2.s^-1
same,Net photosynthetic rate. PN,photosynthesis; 2 hours,18.73 µmol O2.m^-2.s^-1 and 21.56 µmol O2.m^-2.s^-1 and 23.83 µmol O2.m^-2.s^-1 and 23.42 µmol O2.m^-2.s^-1 and 25.10 µmol O2.m^-2.s^-1 and 23.98 µmol O2.m^-2.s^-1
same,"Net photosynthetic rate. PN, Average",photosynthesis; 4 hours,22.34 µmol O2.m^-2.s^-1
same,Net photosynthetic rate. PN,photosynthesis; 4 hours,21.56 µmol O2.m^-2.s^-1 and 22.70 µmol O2.m^-2.s^-1 and 22.31 µmol O2.m^-2.s^-1 (2×) and 21.75 µmol O2.m^-2.s^-1 and 23.42 µmol O2.m^-2.s^-1
same,"Net photosynthetic rate. PN, Average",photosynthesis; 6 hours,22.72 µmol O2.m^-2.s^-1
same,Net photosynthetic rate. PN,photosynthesis; 6 hours,23.83 µmol O2.m^-2.s^-1 and 22.70 µmol O2.m^-2.s^-1 and 22.31 µmol O2.m^-2.s^-1 (2×) and 21.75 µmol O2.m^-2.s^-1 and 23.42 µmol O2.m^-2.s^-1
CC(C)[C@@H](C)[C@@H](O)[C@H](O)[C@@H](C)[C@H]1CC[C@H]2[C@@H]3COC(=O)[C@H]4C[C@H](O)[C@H](O)C[C@]4(C)[C@H]3CC[C@]12C [24-epibrassinolide],Relative amount of product detected,RuBisCO; [2],1.10
CC(C)[C@@H](C)[C@@H](O)[C@H](O)[C@@H](C)[C@H]1CC[C@H]2[C@@H]3CC(=O)[C@H]4C[C@H](O)[C@H](O)C[C@]4(C)[C@H]3CC[C@]12C [24-epicastasterone],Relative amount of product detected,RuBisCO; [2],1.20
CC(C)CC[C@@H](O)[C@](C)(O)[C@H]1CC[C@@]2(O)C3=CC(=O)[C@@H]4C[C@@H](O)[C@@H](O)C[C@]4(C)[C@H]3[C@H](O)C[C@]12C [Ajugasterone C],Relative amount of product detected,RuBisCO; [2],1.13
CC(C)(O)CC[C@@H](O)[C@](C)(O)[C@H]1CC[C@@]2(O)C3=CC(=O)[C@]4(O)C[C@@H](O)[C@@H](O)C[C@]4(C)[C@H]3CC[C@]12C [Polypodine B],Relative amount of product detected,RuBisCO; [2],1.11
